Measured values as given in patent publication US12139487B2, “Compounds and uses thereof” (Foghorn Therapeutics Inc., priority 2022, dated 2024).

Tested on: BRM-dependent transcription (BRG1 mutant lung cancer cell line A549)
Test: BRM-dependent transcription, MMTV luciferase reporter in BRG1 mutant A549 cells
Type: cell-based
Conditions: Table 11; for IC50: A549-MMTV luciferase reporter, dexamethasone induced, 6 hours; for Ratio (MDA-MMTV IC50 (μM) divided by A549-MMTV IC50 (μM)): MMTV luciferase reporter cell lines, selectivity BRG1/BRM
Method in brief: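 A549 (BRG1-mutant) cells engineered with a BRM-dependent MMTV luciferase reporter; transcription induced with dexamethasone in presence of compound at various concentrations. Luminescence read 6 h after stimulation.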

CCOc1nc(C(F)F)ccc1-c1ccc2cnc(CNC(=O)c3cc(Br)c4c(c3)S(=O)(=O)[C@@H](F)COC4)cc2n1 [Compound 436]
IC50 (Homo sapiens, A549, 6 h): 13.1 nM
Ratio (MDA-MMTV IC50 (μM) divided by A549-MMTV IC50 (μM)): 43.58

COCCOc1cnc2c(c1)OCCN2c1ccc2cnc(CNC(=O)c3cc(C(F)F)c4c(c3)S(=O)(=O)[C@@H](F)COC4)cc2n1 [Compound 437]
IC50 (Homo sapiens, A549, 6 h): 5.8 nM
Ratio (MDA-MMTV IC50 (μM) divided by A549-MMTV IC50 (μM)): 35.93

COCCOc1cnc2c(c1)CCCN2c1ccc2cnc(CNC(=O)c3cc(C(F)F)c4c(c3)S(=O)(=O)[C@@H](F)COC4)cc2n1 [Compound 439]
IC50 (Homo sapiens, A549, 6 h): 13.3 nM
Ratio (MDA-MMTV IC50 (μM) divided by A549-MMTV IC50 (μM)): 27.20

[2H]C([2H])([2H])C([2H])([2H])Oc1ccc(-c2ccc3cnc(CNC(=O)c4cc(C(F)F)c5c(c4)S(=O)(=O)[C@@H](F)COC5)cc3n2)nc1C1CC1(F)F (stereo partly shown) [Compound 440]
IC50 (Homo sapiens, A549, 6 h): 16.1 nM
Ratio (MDA-MMTV IC50 (μM) divided by A549-MMTV IC50 (μM)): 53.01

O=C(NCc1cc2nc(-c3ccc(C(F)F)c(N4CC(F)C4)n3)ccc2cn1)c1cc(F)c2c(c1)S(=O)(=O)[C@@H](F)CCO2 [Compound 441]
IC50 (Homo sapiens, A549, 6 h): 8.9 nM
Ratio (MDA-MMTV IC50 (μM) divided by A549-MMTV IC50 (μM)): 21.14

O=C(NCc1cc2nc(-c3ccc(C(F)F)c(C4CC4)n3)ccc2cn1)c1cc(Br)c2c(c1)S(=O)(=O)[C@@H](F)COC2 [Compound 442]
IC50 (Homo sapiens, A549, 6 h): 8.5 nM
Ratio (MDA-MMTV IC50 (μM) divided by A549-MMTV IC50 (μM)): 25.83

C=C(F)c1cc(C(=O)NCc2cc3nc(-c4cccc(N5C[C@@H](C)O[C@@H](C)C5)n4)ccc3cn2)cc2c1OCC[C@H](F)S2(=O)=O [Compound 443]
IC50 (Homo sapiens, A549, 6 h): 15.2 nM
Ratio (MDA-MMTV IC50 (μM) divided by A549-MMTV IC50 (μM)): 27.83

O=C(NCc1cc2nc(-c3cccc(OC(F)F)c3F)ccc2cn1)c1cc(Cl)c2c(c1)S(=O)(=O)[C@@H](F)COC2 [Compound 444]
IC50 (Homo sapiens, A549, 6 h): 22.6 nM
Ratio (MDA-MMTV IC50 (μM) divided by A549-MMTV IC50 (μM)): 24.79

CCOc1nc(C(C)(F)F)ccc1-c1ccc2cnc(CNC(=O)c3cc(Cl)c4c(c3)S(=O)(=O)[C@@H](F)COC4)cc2n1 [Compound 445]
IC50 (Homo sapiens, A549, 6 h): 21.2 nM
Ratio (MDA-MMTV IC50 (μM) divided by A549-MMTV IC50 (μM)): 22.07

[2H]C([2H])([2H])C([2H])([2H])Oc1nc(C(F)F)ccc1-c1ccc2cnc(CNC(=O)c3cc(C(F)F)c4c(c3)S(=O)(=O)[C@@H](F)COC4)cc2n1 [Compound 446]
IC50 (Homo sapiens, A549, 6 h): 13.5 nM
Ratio (MDA-MMTV IC50 (μM) divided by A549-MMTV IC50 (μM)): 29.71

O=C(NCc1cc2nc(-c3ccc(OC(F)F)c([C@H]4CC4(F)F)n3)ccc2cn1)c1cc(Cl)c2c(c1)S(=O)(=O)[C@@H](F)COC2 [Compound 447]
IC50 (Homo sapiens, A549, 6 h): 13.8 nM
Ratio (MDA-MMTV IC50 (μM) divided by A549-MMTV IC50 (μM)): 22.11

O=C(NCc1cc2nc(-c3ccc(OC(F)F)c(C4CC4(F)F)n3)ccc2cn1)c1cc(Br)c2c(c1)S(=O)(=O)[C@@H](F)CCO2 (stereo partly shown) [Compound 448]
IC50 (Homo sapiens, A549, 6 h): 19 nM
Ratio (MDA-MMTV IC50 (μM) divided by A549-MMTV IC50 (μM)): 37.60

O=C(NCc1cc2nc(-c3ccc(OC(F)F)c([C@@H]4CC4(F)F)n3)ccc2cn1)c1cc(Cl)c2c(c1)S(=O)(=O)[C@@H](F)COC2 [Compound 449]
IC50 (Homo sapiens, A549, 6 h): 7.4 nM
Ratio (MDA-MMTV IC50 (μM) divided by A549-MMTV IC50 (μM)): 37.87

COc1nc([C@@H](F)CF)ccc1-c1ccc2cnc(CNC(=O)c3cc(Br)c4c(c3)S(=O)(=O)[C@@H](F)COC4)cc2n1 [Compound 450]
IC50 (Homo sapiens, A549, 6 h): 15.4 nM
Ratio (MDA-MMTV IC50 (μM) divided by A549-MMTV IC50 (μM)): 35.43

O=C(NCc1cc2nc(-c3ccc(OC(F)F)c([C@@H]4CC4(F)F)n3)ccc2cn1)c1cc(C(F)F)c2c(c1)S(=O)(=O)[C@@H](F)COC2 [Compound 451]
IC50 (Homo sapiens, A549, 6 h): 5.6 nM
Ratio (MDA-MMTV IC50 (μM) divided by A549-MMTV IC50 (μM)): 25.86

O=C(NCc1cc2nc(-c3cncc(OC(F)F)n3)ccc2cn1)c1cc(Cl)c2c(c1)S(=O)(=O)[C@@H](F)COC2 [Compound 452]
IC50 (Homo sapiens, A549, 6 h): 20.4 nM
Ratio (MDA-MMTV IC50 (μM) divided by A549-MMTV IC50 (μM)): 28.85

O=C(NCc1cc2nc(-c3ccc([C@H](F)C(F)F)c(C4CC4)n3)ccc2cn1)c1cc(F)c2c(c1)S(=O)(=O)[C@@H](F)COC2 [Compound 453]
IC50 (Homo sapiens, A549, 6 h): 8.8 nM
Ratio (MDA-MMTV IC50 (μM) divided by A549-MMTV IC50 (μM)): 28.72

[2H]C([2H])([2H])C([2H])([2H])Oc1nc([C@@H](F)CF)ccc1-c1ccc2cnc(CNC(=O)c3cc(Cl)c4c(c3)S(=O)(=O)[C@@H](F)CCO4)cc2n1 [Compound 454]
IC50 (Homo sapiens, A549, 6 h): 14.2 nM
Ratio (MDA-MMTV IC50 (μM) divided by A549-MMTV IC50 (μM)): 29.67

[2H]C([2H])([2H])Oc1ccc(-c2ccc3cnc(CNC(=O)c4cc(C(F)F)c5c(c4)S(=O)(=O)[C@@H](F)COC5)cc3n2)nc1C1CC1(F)F (stereo partly shown) [Compound 455]
IC50 (Homo sapiens, A549, 6 h): 10.4 nM
Ratio (MDA-MMTV IC50 (μM) divided by A549-MMTV IC50 (μM)): 45.81

CCOc1nc([C@@H](F)CF)ccc1-c1ccc2cnc(CNC(=O)c3cc(Br)c4c(c3)S(=O)(=O)[C@@H](F)COC4)cc2n1 [Compound 456]
IC50: 9.7 nM
Ratio (MDA-MMTV IC50 (μM) divided by A549-MMTV IC50 (μM)): 40.89

CCOc1nc([C@@H](F)CF)ccc1-c1ccc2cnc(CNC(=O)c3cc(C(F)F)c4c(c3)S(=O)(=O)[C@@H](F)COC4)cc2n1 [Compound 457]
IC50: 7.2 nM
Ratio (MDA-MMTV IC50 (μM) divided by A549-MMTV IC50 (μM)): 33.28

O=C(NCc1cc2nc(-c3cccc4c3OC(F)(F)O4)ccc2cn1)c1cc(F)c2c(c1)S(=O)(=O)[C@@H](F)COC2 [Compound 458]
IC50 (Homo sapiens, A549, 6 h): 15.6 nM
Ratio (MDA-MMTV IC50 (μM) divided by A549-MMTV IC50 (μM)): 23.65

[2H]C([2H])([2H])Oc1ccc(-c2ccc3cnc(CNC(=O)c4cc(C(F)F)c5c(c4)S(=O)(=O)[C@@H](F)COC5)cc3n2)nc1[C@H]1CC1(F)F [Compound 459]
IC50 (Homo sapiens, A549, 6 h): 15.3 nM
Ratio (MDA-MMTV IC50 (μM) divided by A549-MMTV IC50 (μM)): 27.87

CCOc1nc([C@H](F)CF)ccc1-c1ccc2cnc(CNC(=O)c3cc(C(F)F)c4c(c3)S(=O)(=O)[C@@H](F)COC4)cc2n1 [Compound 460]
IC50: 10 nM
Ratio (MDA-MMTV IC50 (μM) divided by A549-MMTV IC50 (μM)): 41.47

CCOc1nc([C@H](F)CF)ccc1-c1ccc2cnc(CNC(=O)c3cc(Br)c4c(c3)S(=O)(=O)[C@@H](F)COC4)cc2n1 [Compound 461]
IC50 (Homo sapiens, A549, 6 h): 25.9 nM
Ratio (MDA-MMTV IC50 (μM) divided by A549-MMTV IC50 (μM)): 56.88

COCCOc1cnc2c(c1)C(F)(F)CCN2c1ccc2cnc(CNC(=O)c3cc(Br)c4c(c3)S(=O)(=O)[C@@H](F)CCO4)cc2n1 [Compound 462]
IC50 (Homo sapiens, A549, 6 h): 8.1 nM
Ratio (MDA-MMTV IC50 (μM) divided by A549-MMTV IC50 (μM)): 25.94

[2H]C([2H])([2H])C([2H])([2H])Oc1ccc(-c2ccc3cnc(CNC(=O)c4cc(F)c5c(c4)S(=O)(=O)[C@@H](F)COC5)cc3n2)nc1C1CC1(F)F (stereo partly shown) [Compound 463]
IC50 (Homo sapiens, A549, 6 h): 6.2 nM
Ratio (MDA-MMTV IC50 (μM) divided by A549-MMTV IC50 (μM)): 35.00

[2H]C([2H])([2H])C([2H])([2H])Oc1ccc(-c2ccc3cnc(CNC(=O)c4cc(F)c5c(c4)S(=O)(=O)[C@@H](F)COC5)cc3n2)nc1[C@@H]1CC1(F)F [Compound 464]
IC50 (Homo sapiens, A549, 6 h): 7.1 nM
Ratio (MDA-MMTV IC50 (μM) divided by A549-MMTV IC50 (μM)): 39.23

O=C(NCc1cc2nc(-c3cnc(OC(F)F)c(C4CC4)n3)ccc2cn1)c1cc(C(F)F)c2c(c1)S(=O)(=O)[C@@H](F)COC2 [Compound 465]
IC50 (Homo sapiens, A549, 6 h): 22.6 nM
Ratio (MDA-MMTV IC50 (μM) divided by A549-MMTV IC50 (μM)): 55.20

CN1Cc2c(Cl)cc(C(=O)NCc3cc4nc(-c5cccc(OC(F)F)n5)ccc4cn3)cc2S(=O)(=O)[C@H](F)C1 [Compound 466]
IC50 (Homo sapiens, A549, 6 h): 24.6 nM
Ratio (MDA-MMTV IC50 (μM) divided by A549-MMTV IC50 (μM)): 48.16

COc1nc(C(C)(F)F)ccc1-c1ccc2cnc(CNC(=O)c3cc(C(F)F)c4c(c3)S(=O)(=O)[C@@H](F)COC4)cc2n1 [Compound 467]
IC50 (Homo sapiens, A549, 6 h): 17 nM
Ratio (MDA-MMTV IC50 (μM) divided by A549-MMTV IC50 (μM)): 24.85

CCOc1nc(C(C)(F)F)ccc1-c1ccc2cnc(CNC(=O)c3cc(F)c4c(c3)S(=O)(=O)[C@@H](F)COC4)cc2n1 [Compound 468]
IC50: 4.2 nM
Ratio (MDA-MMTV IC50 (μM) divided by A549-MMTV IC50 (μM)): 25.28

C[C@@H]1CCN1c1cnc2c(-c3ccc4cnc(CNC(=O)c5cc(F)c6c(c5)S(=O)(=O)[C@@H](F)COC6)cc4n3)cccc2c1 [Compound 470]
IC50: 4.1 nM
Ratio (MDA-MMTV IC50 (μM) divided by A549-MMTV IC50 (μM)): 29.42

CCOc1nc(C(C)(F)F)ccc1-c1ccc2cnc(CNC(=O)c3cc(F)c4c(c3)S(=O)(=O)[C@@H](F)COC4)cc2n1 [Compound 471]
IC50: 8.2 nM
Ratio (MDA-MMTV IC50 (μM) divided by A549-MMTV IC50 (μM)): 25.44

CCOc1nn(-c2ccc3cnc(CNC(=O)c4cc(Cl)c5c(c4)S(=O)(=O)[C@@H](F)COC5)cc3n2)cc1F [Compound 472]
IC50 (Homo sapiens, A549, 6 h): 11 nM
Ratio (MDA-MMTV IC50 (μM) divided by A549-MMTV IC50 (μM)): 39.75

O=C(NCc1cc2nc(-n3cc(F)c(OC(F)F)n3)ccc2cn1)c1cc(F)c2c(c1)S(=O)(=O)[C@@H](F)COC2 [Compound 473]
IC50 (Homo sapiens, A549, 6 h): 17.1 nM
Ratio (MDA-MMTV IC50 (μM) divided by A549-MMTV IC50 (μM)): 22.61

O=C(NCc1cc2nc(-n3cc(F)c(OC(F)F)n3)ccc2cn1)c1cc(Cl)c2c(c1)S(=O)(=O)[C@@H](F)COC2 [Compound 474]
IC50 (Homo sapiens, A549, 6 h): 18.6 nM
Ratio (MDA-MMTV IC50 (μM) divided by A549-MMTV IC50 (μM)): 42.97

CCOc1nc([C@@H](F)CF)ccc1-c1ccc2cnc(CNC(=O)c3cc(Cl)c4c(c3)S(=O)(=O)[C@@H](F)COC4)cc2n1 [Compound 475]
IC50 (Homo sapiens, A549, 6 h): 7.1 nM
Ratio (MDA-MMTV IC50 (μM) divided by A549-MMTV IC50 (μM)): 37.21
